Experimental data: the supplement of paper PMC10307832

Tests used:
Assay in all cases: relative viability (nuclei count vs DMSO), 5 days (fraction); higher = more cells survive
VX-11e + Dasatinib = compound: CC1=CN=C(N=C1C2=CNC(=C2)C(=O)N[C@H](CO)C3=CC(=CC=C3)Cl)NC4=C(C=C(C=C4)F)Cl [VX-11e] + Cc1nc(Nc2ncc(C(=O)Nc3c(C)cccc3Cl)s2)cc(N2CCN(CCO)CC2)n1 [Dasatinib] (partner 0.075 µM)
Procedure, shortened: (§1)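 Relative viability is defined as nuclei in treated wells over nuclei in vehicle wells. Duplicate plates were run and medians reported. Lung cancer cell lines in 1536-well plates were dosed by pin tool one day after seeding, with one drug or with a fixed anchor-drug dose plus five library-drug doses (not always all listed) in √10 steps, and nuclei were counted after 5 days.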

VX-11e + Lapatinib = compound: CC1=CN=C(N=C1C2=CNC(=C2)C(=O)N[C@H](CO)C3=CC(=CC=C3)Cl)NC4=C(C=C(C=C4)F)Cl [VX-11e] + CS(=O)(=O)CCNCc1ccc(-c2ccc3ncnc(Nc4ccc(OCc5cccc(F)c5)c(Cl)c4)c3c2)o1 [Lapatinib] (partner 2 µM)
Procedure, shortened: as §1

VX-11e + Pemetrexed = compound: CC1=CN=C(N=C1C2=CNC(=C2)C(=O)N[C@H](CO)C3=CC(=CC=C3)Cl)NC4=C(C=C(C=C4)F)Cl [VX-11e] + Nc1nc2[nH]cc(CCc3ccc(C(=O)N[C@@H](CCC(=O)O)C(=O)O)cc3)c2c(=O)[nH]1 [Pemetrexed] (partner 0.2 µM)
Procedure, shortened: as §1

VX-11e + Crizotinib = compound: CC1=CN=C(N=C1C2=CNC(=C2)C(=O)N[C@H](CO)C3=CC(=CC=C3)Cl)NC4=C(C=C(C=C4)F)Cl [VX-11e] + C[C@@H](Oc1cc(-c2cnn(C3CCNCC3)c2)cnc1N)c1c(Cl)ccc(F)c1Cl [Crizotinib] (partner 1 µM)
Procedure, shortened: as §1

Cell Line	relative viability (VX-11e + Dasatinib; first compound 0.04 µM)	relative viability (VX-11e + Dasatinib; first compound 0.1265 µM)	relative viability (VX-11e + Dasatinib; first compound 0.4 µM)	relative viability (VX-11e + Dasatinib; first compound 1.265 µM)	relative viability (VX-11e + Dasatinib; first compound 4 µM)	relative viability (VX-11e + Lapatinib; first compound 0.04 µM)	relative viability (VX-11e + Lapatinib; first compound 0.1265 µM)	relative viability (VX-11e + Lapatinib; first compound 1.265 µM)	relative viability (VX-11e + Lapatinib; first compound 4 µM)	relative viability (VX-11e + Pemetrexed; first compound 0.04 µM)	relative viability (VX-11e + Pemetrexed; first compound 0.1265 µM)	relative viability (VX-11e + Pemetrexed; first compound 1.265 µM)	relative viability (VX-11e + Pemetrexed; first compound 4 µM)	relative viability (VX-11e + Crizotinib; first compound 0.04 µM)	relative viability (VX-11e + Crizotinib; first compound 0.1265 µM)	relative viability (VX-11e + Crizotinib; first compound 1.265 µM)	relative viability (VX-11e + Crizotinib; first compound 4 µM)	relative viability (VX-11e + Lapatinib; first compound 0.4 µM)	relative viability (VX-11e + Pemetrexed; first compound 0.4 µM)	relative viability (VX-11e + Crizotinib; first compound 0.4 µM)
LOU-NH91	0.534	0.514	0.372	0.489	0.471	0.66	0.673	0.565	0.667	0.448	0.373	0.367	0.358	0.706	0.71	0.773	0.639	–	–	–
HCC-15	0.66	0.52	–	0.243	0.148	0.949	0.849	0.565	0.288	0.227	0.232	0.197	0.15	0.904	0.747	0.449	0.264	0.38	0.22	0.64
HCC-827	0.297	0.292	0.257	0.406	0.246	0.191	0.229	0.205	0.207	0.254	0.226	0.271	0.252	1.01	0.953	0.958	0.839	0.206	0.241	0.888
NCI-H1703	–	–	–	–	–	1.49	1.18	1.08	0.791	–	–	–	–	0.985	0.727	0.589	0.582	–	–	–
NCI-H322M	0.224	0.208	0.27	0.252	0.225	0.581	–	0.436	0.456	0.623	0.658	0.497	0.594	1.08	–	0.987	0.699	0.674	0.641	0.942
SK-LU-1	0.202	0.184	–	0.147	0.108	0.897	0.744	0.752	0.272	1.01	0.981	0.596	0.301	0.987	0.761	0.735	0.407	0.524	0.975	0.789
NCI-H2087	0.943	0.73	–	0.301	0.202	1.23	0.867	0.979	0.295	0.691	0.613	0.64	0.544	1.03	0.809	1.07	0.502	0.42	–	0.944
201T	0.58	0.536	0.486	0.502	0.495	0.948	0.988	0.816	0.942	0.347	0.344	0.249	0.31	1.02	0.961	0.97	0.948	0.943	0.317	1.02
NCI-H1975	0.373	0.29	0.195	0.254	0.171	0.925	0.862	0.811	0.342	0.307	0.276	0.27	0.258	0.972	0.962	0.963	0.407	0.665	0.295	0.95
NCI-H2085	0.296	0.241	0.217	0.188	0.193	0.596	0.765	0.647	0.608	0.862	0.873	0.635	0.583	0.88	0.817	0.714	0.619	0.73	0.81	0.746
BEN	–	0.277	0.399	0.236	0.252	–	0.637	0.45	0.728	0.491	0.69	0.582	0.629	0.953	0.723	0.575	0.828	0.888	0.875	0.941
SW 1573	0.656	0.641	0.718	0.424	0.28	1.11	0.979	0.891	0.472	–	0.88	0.559	0.393	0.871	0.789	0.793	0.451	1.07	0.703	0.743
NCI-H1793	0.197	0.292	–	0.326	0.287	–	0.611	0.397	0.278	–	0.715	0.591	0.259	–	–	–	–	–	–	–
RERF-LC-KJ	0.872	0.758	0.867	0.71	0.59	0.833	0.776	0.848	0.649	0.522	0.468	0.442	0.417	0.899	0.834	0.863	0.753	0.879	0.42	0.881
NCI-H1437	0.292	0.329	0.161	0.218	0.16	0.755	0.754	0.291	0.228	0.331	0.274	0.257	0.219	1.05	0.957	0.974	0.487	0.35	0.296	0.853
NCI-H2009	0.307	0.286	0.242	0.169	0.122	0.944	0.891	0.265	0.438	1.08	1.03	1.1	0.673	1.07	1.04	0.565	0.364	0.729	1.12	0.933
NCI-H1395	0.448	0.383	0.346	0.398	0.376	0.969	0.864	0.82	0.716	0.744	0.864	0.96	0.533	–	–	–	–	0.548	–	–
PC-3 [JPC-3]	0.904	0.903	0.886	1.16	0.883	0.384	0.485	0.453	0.445	1.08	1.09	0.976	0.846	0.993	0.963	1.07	0.845	0.436	1.12	0.93
